Laboratory results published in PubChem BioAssay AID2387 (Broad Institute, 2010).
Calls of active or inactive are those of the source.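 The calls were made as follows: active = fitted EC50 no more than tenfold above the highest tested concentration; inconclusive = flat fit with 30 to 70% signal loss, or poor fit; inactive = the rest.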

Test system: Candida albicans CaCi-2 growth (no fluconazole), Alamar Blue
Assay: C. albicans growth inhibition without fluconazole, dose response, counter-screen for fluconazole resistance reversal project, CaCi-2 strain, Alamar Blue fluorescence (AID 2387)
Settings: C. albicans CaCi-2 (fluconazole-resistant clinical isolate) growth without fluconazole, 48 h

| Compound | EC50 |
| --- | --- |
| O=C(NCc1cc([N+](=O)[O-])ccc1O)c1cccnc1Sc1ccccc1Cl | > 15 µM (inactive) |
| CC1CCC(C(C)C)C(OC(=O)Cn2c(-c3ccc(Br)cc3)[n+](C)c3ccccc32)C1 (centres undefined) | > 16 µM (inactive) |
| C=CCNC(=S)Nc1sc2c(c1C(=O)OCC)CC(C)(CC)OC2 (centres undefined) | > 15 µM (inactive) |
| C(=C\c1ccccc1)/CN1CCN(c2ncnc3c2oc2ccccc23)CC1 | > 16 µM (inactive) |
| O=C(N/N=C/c1sc2ccccc2c1O)c1cccc2ccccc12 | > 16 µM (inactive) |
| c1ccc(CC2CCN(c3ncnc4sccc34)CC2)cc1 | > 16 µM (inactive) |
| C=CCN(CC=C)Cc1c(O)ccc2c(=O)c(-c3ccccc3)coc12 | > 15 µM (inactive) |
| Cn1cc(C(c2ccccn2)c2cn(C)c3ccccc23)c2ccccc21 | > 15 µM (inactive) |
| COc1ccc(CCNc2ncnc3sc(C)cc23)cc1OC | > 15 µM (inactive) |
| CCN(CC)c1ccc2cc(S(=O)(=O)c3ccc(C)cc3)c(=O)oc2c1 | > 16 µM (inactive) |
| CCc1cc(C(=O)NNC(=S)Nc2cc(C)ccc2C)cs1 | > 15 µM (inactive) |
| COc1ccc(C2c3ccc4ccccc4c3Oc3ncn(CCN4CCOCC4)c(=N)c32)cc1 (centres undefined) | > 16 µM (inactive) |
| CC(CC(=O)Nc1ncc([N+](=O)[O-])s1)c1ccccc1 (centres undefined) | > 16 µM (inactive) |
| O=[N+]([O-])c1ccc(O)c(Nc2ncnc3ccc(Br)cc23)c1 | > 16 µM (inactive) |
| O=[N+]([O-])c1ccc(O)c(P(=O)(c2ccccc2)c2ccccc2)c1 | > 15 µM (inactive) |
| CCOc1ccc(/C=C/C2=CC(C)(C)NC(=S)N2)cc1 | > 15 µM (inactive) |
| Cc1ccc(C(=O)Nc2cccc(-c3cn4ccccc4n3)c2)cc1 | > 16 µM (inactive) |
| O=C(CNc1ccc2ccccc2c1)N/N=C/c1ccc([N+](=O)[O-])o1 | > 16 µM (inactive) |
| CC(C)(C)c1ccc(CSc2cnn(C(C)(C)C)c(=O)c2Cl)cc1 | > 16 µM (inactive) |
| O=C(Nc1nnc(C2COc3ccccc3O2)o1)c1ccc(F)cc1 (centres undefined) | > 15 µM (inactive) |
| CC(C)CC(=O)NC(c1cccs1)c1ccc2cccnc2c1O (centres undefined) | 14.2 µM |
| O=C(N/N=C/c1cc2c3c(c1O)CCCN3CCC2)c1ccccc1O | 2.15 µM |
| CCN1/C(=C/c2sc(-c3ccccc3C)c[n+]2C)Sc2ccccc21 | > 15 µM (inactive) |
| CCC(=O)NC(c1ccc(C)cc1)c1cc([N+](=O)[O-])c2cccnc2c1O (centres undefined) | > 15 µM (inactive) |
| O=C1CS/C(=N\C(=O)N2c3ccccc3Sc3ccccc32)N1 | > 15 µM (inactive) |

| Compound | EC50 |
| --- | --- |
| CCOC(=O)c1c(NC(=S)NCC2CCCO2)sc(C)c1C (centres undefined) | > 16 µM (inactive) |
| Nc1ccc(C(=O)N/N=C\c2ccc(OC(=O)c3ccccc3Cl)cc2)cc1 | > 16 µM (inactive) |
| C=CCn1c(N)nc2ccccc21 | > 16 µM (inactive) |
| CCc1nnc(NC(=O)CSc2nc(SC)ns2)s1 | > 16 µM (inactive) |
| CC(=O)NC(c1cccs1)c1cc([N+](=O)[O-])c2cccnc2c1O (centres undefined) | > 15 µM (inactive) |
| CCCC(=O)NC(c1ccco1)c1cc([N+](=O)[O-])c2cccnc2c1O (centres undefined) | > 15 µM (inactive) |
| CC1=C(CC[C@@H](C)CO)OC2CC3C4CCC5CC(O)CCC5(C)C4CC(=O)C3(C)C12 (some centres undefined) | > 15 µM (inactive) |
| COc1ccc(C2C(C#N)=C(N)Oc3c2ccc2cccnc32)cc1OC (centres undefined) | > 15 µM (inactive) |
| N/C(Cc1ccc(Cl)c(Cl)c1)=N\OC(=O)c1cccs1 | > 16 µM (inactive) |
| O=C(CCS(=O)(=O)c1ccc(F)cc1)Nc1nc(-c2ccncc2)cs1 | > 15 µM (inactive) |
| Cc1ccc(/C=C/C(=O)c2ccccc(=O)c2O)cc1C | 13 µM |
| Clc1ccc(CONc2ncnc3nonc23)c(Cl)c1 | > 16 µM (inactive) |
| Cc1ccc(C)c(-c2nnc(NC(=O)c3ccco3)o2)c1 | > 16 µM (inactive) |
| Cc1ccc(C)c(S(=O)(=O)N2CCN(Cc3ccc(O)c4ncccc34)CC2)c1 | > 16 µM (inactive) |
| Nc1nonc1-n1nnc(C(=O)N/N=C/c2cc(Cl)ccc2O)c1CN1CCCCCC1 | > 15 µM (inactive) |
| COc1cccc(COc2cc3ccccc3nc2C)c1 | > 16 µM (inactive) |
| C[C@@H]1C[C@@H]2O[C@H]2/C=C\C=C\C(=O)Cc2c(Cl)c(O)cc(O)c2C(=O)O1 | > 16 µM (inactive) |
| CCN1CCN(C(c2cccnc2)c2cc(Cl)c3cccnc3c2O)CC1 (centres undefined) | 15.6 µM |
| O=C(Nc1nc(-c2ccccn2)cs1)c1ccc(Br)s1 | 10.2 µM |
| Clc1ccc2c(c1)C(c1cccs1)=NNC(c1cccnc1)=N2 | > 15 µM (inactive) |
| Cc1ccc(-n2nc(C)c3c(C)cc(=O)[nH]c32)cc1 | > 15 µM (inactive) |
| CC[n+]1c(C=C2C=C(C)OC(C)=C2)sc2ccccc21 | > 16 µM (inactive) |
| COc1cccc(/C=N/Nc2ncnc3scc(-c4ccccc4)c23)c1O | 6.58 µM |
| O=C(c1ccc(Cl)cc1)N1CCN(c2ccnc3cc(Cl)ccc23)CC1 | > 15 µM (inactive) |
| O=Cc1ccc(O)c2ncccc12 | 6.24 µM |

| Compound | EC50 |
| --- | --- |
| Cc1cc2ccccn2c1C(C[N+](=O)[O-])c1c(F)cccc1Cl (centres undefined) | 2.82 µM |
| Cc1cccc2sc(NNC(=O)c3cc(-c4cccs4)nc4ccccc34)nc12 | > 16 µM (inactive) |
| CC(C)CCN1C(=O)c2ccc(C(=O)Nc3ccc(Br)cc3C(=O)O)cc2C1=O | > 16 µM (inactive) |
| COCCn1c(=O)[nH]c(=O)c2cc(C(=O)c3cc(Cl)ccc3O)cnc21 | > 16 µM (inactive) |
| O=[N+]([O-])c1ccc(O)c(/C=N/Nc2ccc(Cl)nn2)c1 | 9.85 µM |
| O=c1[nH]c(=S)[nH]nc1Cc1ccc(Cl)c(Cl)c1 | > 16 µM (inactive) |
| Oc1c(C(Nc2nccs2)c2ccc(C(F)(F)F)cc2)ccc2cccnc12 (centres undefined) | 4.35 µM |
| Nc1nonc1-n1nnc(C(=O)N/N=C/c2cc(Br)ccc2O)c1CNc1ccccc1 | > 16 µM (inactive) |
| CC(C)n1cc(/C=C/c2cc[n+](C)cc2)c2ccccc21 | > 15 µM (inactive) |
| Clc1ccccc1C(c1ccccc1)(c1ccccc1)n1ccnc1 | 1.58 µM |
| CCNC(=S)NNC(=O)c1cc(-c2cc(C)ccc2C)nc2ccccc12 | > 15 µM (inactive) |
| O=[N+]([O-])c1cc(CN2CCN(c3ccccc3)CC2)c(O)c2ncccc12 | 6.17 µM |
| O=C(Oc1c(CN2CCOCC2)cc(Cl)c2cccnc12)c1ccc(F)cc1 | > 16 µM (inactive) |
| COc1ccc(C(=O)NC(=S)NNC(=O)c2ccc(C)cc2)cc1 | > 15 µM (inactive) |
| c1ccc2c(c1)OCC(CNc1ncnc3sccc13)O2 (centres undefined) | > 15 µM (inactive) |
| CCNc1nc(N)nc(-c2cc(Cl)ccc2O)n1 | > 15 µM (inactive) |
| CCC(C)n1cnc2c(c1=O)c1nc3ccccc3nc1n2Cc1ccc(OC)cc1 (centres undefined) | > 16 µM (inactive) |
| Cc1cc(NC(c2ccc(Cl)cc2)c2ccc3cccnc3c2O)no1 (centres undefined) | 3.53 µM |
| CCN1/C(=C/c2ccc3cc(C)ccc3[n+]2CC)Sc2ccc3sccc3c21 | 1.75 µM |
| COc1ccc(-c2nnc(NC(=O)c3ccc(F)cc3)o2)cc1 | > 15 µM (inactive) |
| O=C(Nc1nc2ccc(SC(F)F)cc2s1)c1ccc(NS(=O)(=O)c2ccc(F)c(F)c2)cc1 | > 15 µM (inactive) |
| O=C(NNc1nc2ccc(Cl)cc2s1)c1cc(-c2cccs2)nc2ccccc12 | > 16 µM (inactive) |
| O=C(Oc1c(Cl)cc(Cl)c2cccnc12)c1ccco1 | 1.17 µM |
| O=C(N/N=C/c1c(O)ccc2ccccc12)c1cccc(C(F)(F)F)c1 | 1.42 µM |
